Reference: PMC5109658, “Antibacterial and cytotoxic cytochalasins from the endophytic fungus Phomopsis sp. harbored in Garcinia kola (Heckel) nut” (BMC Complementary and Alternative Medicine, 2016)
In brackets after ≈: the same amount, converted by molar mass. Read-outs that look alike come from different tables or passages of the source.

Columns and labels:
S. flexneri SDINT = assay: Broth microdilution MIC/MBC; format: cell-based, Shigella flexneri; settings: for MIC / MBC / MBC/MIC: S. flexneri SDINT; for MIC: 24 h at 37 °C; for MBC: 99.9% reduction in CFU after 24 h; for Selectivity Index S. flexneri SDINT: SI = LC50 on Vero cells / MIC
Experimental: (§1) A total of six bacterial strains were tested for their susceptibility to compounds and these strains were taken from our laboratory collection (kindly provided by Dr. T. Ramamurthy, NICED, Kolkata). Among the clinical strains of Vibrio cholerae used in this study, strains NB2 and SG24 and CO6 belonged to O1 and O139 serotypes, respectively. […]. The other strains used in this study were V. cholerae non-O1, non-O139 (strain PC2); […]. The American Type Culture Collection (ATCC) strain, Staphylococcus aureus ATCC 25923, was used for quality control. The bacterial strains were maintained on agar slant at 4 °C and subcultured on a fresh appropriate agar plates 24 h prior to any antibacterial test. The Mueller Hinton Agar (MHA) was used for the activation of bacteria. The Mueller Hinton Broth (MHB) and nutrient agar (Hi-Media) were used for the MIC and MBC determinations respectively.
(§2) Suspensions of bacteria were prepared in MHB from cells arrested during their logarithmic phase growth (4 h) on MHB at 37 °C. The turbidity of the microbial suspension was read spectrophotometrically at 600 nm and adjusted to an OD of 0.1 with MHB, which is equivalent to 1 × 10^8 CFU/mL. From this prepared solution, other dilutions were made with MHB to yield 1x10^6 CFU/mL.
(§3) MIC and MBC of compounds 1–3 were assessed using the broth microdilution method recommended by the National Committee for Clinical Laboratory Standards with slight modifications. Each test sample was dissolved in dimethylsulfoxide (DMSO) to give a stock solution. The 96-well round bottom sterile plates were prepared by dispensing 180 μL of the inoculated broth (1x10^6 CFU/mL) into each well. A 20 μL aliquot of the stock solution of compound was added. The concentrations of sample tested were 0.125, 0.25, 0.50, 1, 2, 4, 8, 16, 32, 64, 128, 256 and 512 μg/mL. […] Dilutions of tetracycline and ampicillin served as positive controls, while broth with 20 μL of DMSO was used as negative control. The ATCC strain Staphylococcus aureus ATCC 25923 was included for quality assurance purposes. Plates were covered and incubated for 24 h at 37 °C. After incubation, minimum inhibitory concentrations (MIC) were read visually; all wells were plated to nutrient agar (Hi-Media) and incubated. The minimal bactericidal concentration (MBC) was defined as a 99.9% reduction in CFU from the starting inoculums after 24 h incubation interval.

V. cholerae CO6 = assay: Broth microdilution MIC/MBC; format: cell-based, Vibrio cholerae; settings: for MBC/MIC / MBC / MIC: V. cholerae CO6; for MBC / MIC: Vibrio cholerae; for MBC: 99.9% reduction in CFU after 24 h; for MIC: 24 h at 37 °C; for Selectivity Index V. cholerae CO6: SI = LC50 on Vero cells / MIC
Experimental: as §1, §2, §3

V. cholerae NB2 = assay: Broth microdilution MIC/MBC; format: cell-based, Vibrio cholerae; settings: for MIC / MBC / MBC/MIC: V. cholerae NB2; for MIC: 24 h at 37 °C; for MBC: 99.9% reduction in CFU after 24 h; for Selectivity Index V. cholerae NB2: SI = LC50 on Vero cells / MIC
Experimental: as §1, §2, §3

V. cholerae SG24 = assay: Broth microdilution MIC/MBC; format: cell-based, Vibrio cholerae; settings: for MBC / MIC: Vibrio cholerae; for MBC: 99.9% reduction in CFU after 24 h; for MIC: 24 h at 37 °C
Experimental: as §1, §2, §3

V. cholerae PC2 = assay: Broth microdilution MIC/MBC; format: cell-based, Vibrio cholerae; settings: for MIC: 24 h at 37 °C; for MBC: 99.9% reduction in CFU after 24 h
Experimental: as §1, §2, §3

S. aureus ATCC 25923 = assay: Broth microdilution MIC/MBC; format: cell-based, Staphylococcus aureus; settings: for MBC/MIC / MBC / MIC: S. aureus ATCC 25923; for MBC / MIC: Staphylococcus aureus, ATCC25923; for MBC: 99.9% reduction in CFU after 24 h; for MIC: 24 h at 37 °C; for Selectivity Index S. aureus ATCC 25923: SI = LC50 on Vero cells / MIC
Experimental: as §1, §2, §3

HeLa cells = assay: MTT cytotoxicity assay; format: cell-based, Human; settings: SI = LC50 on Vero cells / LC50 on HeLa cells
Experimental: (§4) HeLa (Human cervical cancer cell line, ATCC No. CCL-2) and Vero cells (African green monkey kidney cells, normal non-cancer cells, ATCC No. CCL-81), obtained from the American Type Culture Collection (ATCC) were used in this study. Cytotoxic activity was determined using the 3-(4,5-dimethylthiazol-2-yl)-2,5-diphenyltetrazolium bromide (MTT, Sigma, USA) assay reported by Mosmann for the HeLa and Vero cells. This cell viability assay is based on living cell‘s property to transform the MTT dye tetrazolium ring into a purple-colored formazan structure due to the action of mitochondrial and other dehydrogenases inside the cell. The color intensity yielded by the cell population is directly proportional to the number of viable cells, and one can quantify the absorbance measurements using mathematical parameters. Each test sample was dissolved in dimethylsulfoxide (DMSO) to give a stock solution. Compounds 1–3 were prepared from the stock solutions by serial dilution in RPMI 1640 to give a volume of 100 μL in each well of a microtiter plate (96-well). Each well was filled with 100 μL of cells at 2 × 10^5 cells/mL. The assay for each concentration of compound was performed in triplicates and the culture plates were kept at 37 °C with 5% (v/v) CO2 for 24 h. After removing the supernatant of each well and washing twice by PBS, 20 μL of MTT solution (5 mg/mL in PBS) and 100 μL of medium were then introduced. After 4 h of incubation, 100 μL of DMSO were added to each well to dissolve the formazan crystals and the absorbance values at 490 nm were measured with a microplate reader (Bio-RAD 680, USA). The relative cell viability (%) was expressed as a relative percentage of treated cells to the untreated control cells (TC/UC × 100). The rate of cell inhibition was calculated using the following formula: inhibition rate = [1- (ODtest/ODnegative control)] × 100%. The LC50 values were calculated as the concentration of test sample resulting in a 50% reduction of absorbance compared to untreated cells. Cells treated with 5-fluorouridine + RPMI 1640 served as positive control while cells left untreated + 1% (v/v) DMSO + RPMI 1640 were used as negative control.

MTT cytotoxicity assay [1] = format: cell-based, Human; settings: human, HeLa cells; MTT, 24 h, mean ± SD; read-out: Cytotoxicty (LC50) HeLa cells
Experimental: as §4

MTT cytotoxicity assay [2] = format: cell-based; settings: African green monkey, Vero cells, normal non-cancer cells, mean ± SD, read-out: Cytotoxicty (LC50) Vero cells
Experimental: as §4

[3] = test system: studied microorganisms (six bacterial strains); assay: Antibacterial spectrum over the six tested strains (broth microdilution); format: cell-based; settings: out of 6 strains; concentrations up to 512 μg/mL
Experimental: as §1, §3

Hemolytic assay = format: cell-based; settings: male, 1% human red blood cell suspension, 512 μg/mL (highest concentration tested), 1% human red blood cells, PBS pH 7.4, 37 °C
Experimental: Whole blood (10 mL) from a healthy person was collected into a conical tube containing heparin as an anticoagulant. Erythrocytes were harvested by centrifugation at room temperature for 10 min at 1,000 × g and were washed three times in PBS solution. The top layer (plasma) and the next, milky layer (buffy coat with a layer of platelets on top of it) were then carefully aspirated and discarded. The cell pellet was resuspended in 10 mL of PBS solution and mixed by gentle aspiration with a Pasteur pipette. This cell suspension was used immediately.
For the normal human red blood cells, which were in suspension, the cytotoxicity was evaluated as previously described. Compounds 1–3, at concentrations ranging from 32 to 512 μg/mL, were incubated with an equal volume of 1% human red blood cells in phosphate buffered saline (10 mM PBS, pH 7.4) at 37 °C for 1 h. Tetracycline was tested simultaneously. Non-hemolytic and 100% hemolytic controls were the buffer alone and the buffer containing 1% Triton X-100, respectively. Cell lysis was monitored by measuring the release of hemoglobin at 595 nm with a spectrophotometer (Thermo Scientific, USA). Percent hemolysis was calculated as follows: [(A595 of sample treated with compound - A595 of sample treated with buffer)/(A595 of sample treated with Triton X-100 – A595 of sample treated with buffer)] x 100.

[4] = Shigella flexneri, read-out: MIC
[5] = Vibrio cholerae, V. cholerae PC2
[6] = Vibrio cholerae, V. cholerae PC2, read-out: MIC

SMILES | MBC (S. flexneri SDINT; Shigella flexneri) [µg/mL] | MIC (S. flexneri SDINT; [4]) [µg/mL] | MBC/MIC (V. cholerae CO6) | MBC (V. cholerae CO6) [µg/mL] | MIC (V. cholerae CO6) [µg/mL] | MBC (V. cholerae NB2; Vibrio cholerae) [µg/mL] | MIC (V. cholerae NB2; Vibrio cholerae, read-out: MIC) [µg/mL] | MBC (V. cholerae SG24) [µg/mL] | MIC (V. cholerae SG24) [µg/mL] | MBC (V. cholerae PC2; [5]) [µg/mL] | MIC (V. cholerae PC2; [6]) [µg/mL] | MBC/MIC (S. aureus ATCC 25923) | MBC (S. aureus ATCC 25923) [µg/mL] | MIC (S. aureus ATCC 25923) [µg/mL] | Selectivity Index HeLa cells (HeLa cells) | CC50 at 24 h (MTT cytotoxicity assay [1]) [µg/mL] | CC50 at 24 h (MTT cytotoxicity assay [2]) [µg/mL] | MBC/MIC (S. flexneri SDINT) | Selectivity Index S. flexneri SDINT (S. flexneri SDINT) | Selectivity Index V. cholerae CO6 (V. cholerae CO6) | also measured
CC1(C)S[C@@H]2[C@H](NC(=O)[C@H](N)c3ccccc3)C(=O)N2[C@H]1C(=O)O [Ampicillin, reference compound] | > 512 | > 512 | 1 | 16 (≈ 45.8 µM) | 16 (≈ 45.8 µM) | > 512 | > 512 | 16 (≈ 45.8 µM) | 16 (≈ 45.8 µM) | > 512 | > 512 | 1 | 16 (≈ 45.8 µM) | 16 (≈ 45.8 µM) | – | – | – | – | – | – | MIC (S. flexneri SDINT): >512 µg/mL; MIC (V. cholerae NB2): >512 µg/mL; MBC/MIC (V. cholerae SG24): 1; MIC (V. cholerae PC2; V. cholerae PC2): >512 µg/mL
C=C1[C@@H](C)C2[C@H](Cc3ccccc3)NC(=O)[C@@]23C(/C=C/C[C@H](C)C[C@@](C)(O)/C=C/[C@H]3O)[C@@H]1O (stereo partly shown) [Compound 3, cytochalasin J] | 128 (≈ 283 µM) | 128 (≈ 283 µM) | 1 | 512 (≈ 1130 µM) | 512 (≈ 1130 µM) | 512 (≈ 1130 µM) | 512 (≈ 1130 µM) | > 512 | > 512 | > 512 | > 512 | 1 | 512 (≈ 1130 µM) | 512 (≈ 1130 µM) | 20.18 | 3.66 ± 0.33 (≈ 8.1 µM) | 73.9 ± 0.92 (≈ 164 µM) | 1 | 0.57 | 0.14 | Selectivity Index V. cholerae NB2 (V. cholerae NB2): 0.14; MBC/MIC (V. cholerae NB2): 1; share of the studied microorganisms on which inhibitory effects were noted [3]: 66.66%; Selectivity Index S. aureus ATCC 25923 (S. aureus ATCC 25923): 0.14; hemolysis at 1 h, 512 μg/mL (Hemolytic assay): < 10%
C=C1[C@@H](C)C2[C@H](Cc3ccccc3)NC(=O)[C@@]23C(/C=C/C[C@H](C)C[C@@](C)(O)/C=C/[C@H]3OC(C)=O)[C@@H]1O (stereo partly shown) [Compound 2, cytochalasin H] | 128 (≈ 259 µM) | 128 (≈ 259 µM) | 1 | 512 (≈ 1040 µM) | 512 (≈ 1040 µM) | 512 (≈ 1040 µM) | 512 (≈ 1040 µM) | > 512 | > 512 | 256 (≈ 519 µM) | 256 (≈ 519 µM) | 1 | 256 (≈ 519 µM) | 256 (≈ 519 µM) | 3.61 | 35.7 ± 1.31 (≈ 72.3 µM) | 129.1 ± 1.2 (≈ 262 µM) | 1 | 1.00 | 0.25 | Selectivity Index V. cholerae NB2 (V. cholerae NB2): 0.25; MBC/MIC (V. cholerae NB2): 1; Selectivity Index V. cholerae PC2 (V. cholerae PC2; SI = LC50 on Vero cells / MIC): 0.50; MBC/MIC (V. cholerae PC2; V. cholerae PC2): 1; share of the studied microorganisms on which inhibitory effects were noted [3]: 83.33%; Selectivity Index S. aureus ATCC 25923 (S. aureus ATCC 25923): 0.50; hemolysis at 1 h, 512 μg/mL (Hemolytic assay): 20.1%
